Test results reported in patent publication US9120756B2, “Substituted phenylureas and phenylamides as vanilloid receptor ligands” (Gruenenthal GmbH, priority 2009, dated 2015).

Tests used:
[1] = biological target: rat-species vanilloid receptor 1 (VR1/TRPV1) (Rattus norvegicus (Rat), UniProt O35433); test: FLIPR Ca2+ influx assay on rat dorsal root ganglia cells, capsaicin stimulus (method I); format: cell-based; settings: capsaicin (Cap)
hVR1 = hVR1 (Homo sapiens (Human), UniProt Q8NER1); test: FLIPR assay human VR1, 45° C. stimulus; format: cell-based; settings: inhibition determined at 2.5 μM, read-out: IC50 (human being) 45° C. column: inhibition (as a percentage) @ 2.5 μM
hVR1, sequence (Q8NER1 whole entry): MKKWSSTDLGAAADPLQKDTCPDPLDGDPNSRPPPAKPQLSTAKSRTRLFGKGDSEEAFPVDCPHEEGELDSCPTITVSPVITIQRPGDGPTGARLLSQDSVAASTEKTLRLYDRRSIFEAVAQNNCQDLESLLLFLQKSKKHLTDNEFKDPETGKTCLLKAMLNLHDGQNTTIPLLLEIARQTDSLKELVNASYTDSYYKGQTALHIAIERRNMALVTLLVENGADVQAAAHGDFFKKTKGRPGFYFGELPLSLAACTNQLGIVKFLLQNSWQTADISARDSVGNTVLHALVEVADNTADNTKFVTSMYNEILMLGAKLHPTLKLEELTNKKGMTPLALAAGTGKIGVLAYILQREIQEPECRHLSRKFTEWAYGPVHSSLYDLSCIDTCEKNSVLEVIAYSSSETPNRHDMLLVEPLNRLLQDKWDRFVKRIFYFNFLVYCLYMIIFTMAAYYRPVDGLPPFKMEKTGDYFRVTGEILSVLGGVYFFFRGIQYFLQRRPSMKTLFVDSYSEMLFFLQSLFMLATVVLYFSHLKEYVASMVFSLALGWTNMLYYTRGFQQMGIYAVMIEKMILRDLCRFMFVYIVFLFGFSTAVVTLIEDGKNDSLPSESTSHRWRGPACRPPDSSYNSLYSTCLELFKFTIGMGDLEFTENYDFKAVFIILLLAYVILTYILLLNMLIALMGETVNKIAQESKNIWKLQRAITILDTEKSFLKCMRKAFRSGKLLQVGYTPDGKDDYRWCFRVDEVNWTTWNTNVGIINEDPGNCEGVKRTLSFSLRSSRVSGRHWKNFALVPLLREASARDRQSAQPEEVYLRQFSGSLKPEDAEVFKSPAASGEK
Text: The agonistic or antagonistic effect of the substances to be tested on the vanilloid receptor 1 (VR1) can also be determined using the following assay. In this assay, the influx of Ca^2+ through the channel is quantified with the aid of a Ca^2+-sensitive dye (type Fluo-4, Molecular Probes Europe BV, Leiden, the Netherlands) in a fluorescent imaging plate reader (FLIPR, Molecular Devices, Sunnyvale, USA).
Chinese hamster ovary cells (CHO K1 cells, European Collection of Cell Cultures (ECACC) United Kingdom) are stably transfected with the VR1 gene. For functional testing, these cells are plated out on poly-D-lysine-coated black 96-well plates having a clear base (BD Biosciences, Heidelberg, Germany) at a density of 25,000 cells/well. The cells are incubated overnight at 37° C. and 5% CO2 in a culture medium (Ham's F12 nutrient mixture, 10% by volume of FCS (foetal calf serum), 18 μg/ml of L-proline). The next day the cells are incubated with Fluo-4 (Fluo-4 2 μM, 0.01% by volume of Pluronic F127, Molecular Probes in HBSS (Hank's buffered saline solution), Gibco Invitrogen GmbH, Karlsruhe, Germany) for 30 minutes at 37° C. Subsequently, the plates are washed three times with HBSS buffer and after further incubation for 15 minutes at RT used for Ca^2+ measurement in a FLIPR assay. The Ca^2+-dependent fluorescence is measured before and after the addition of the substances to be tested (λex wavelength=488 nm, λem=540 nm). Quantification is carried out by measuring the highest fluorescence intensity (FC, fluorescence counts) over time.
The FLIPR protocol consists of 2 substance additions. […]
Desensitising agonists and antagonists led to suppression of the Ca^2+ influx.
Ki values for the test substances were obtained by conversion by means of the Cheng-Prusoff equation (Cheng, Prusoff; Biochem. Pharmacol. 22, 3099-3108, 1973).

rat-species vanilloid receptor 1 (VR1/TRPV1), sequence (O35433 whole entry): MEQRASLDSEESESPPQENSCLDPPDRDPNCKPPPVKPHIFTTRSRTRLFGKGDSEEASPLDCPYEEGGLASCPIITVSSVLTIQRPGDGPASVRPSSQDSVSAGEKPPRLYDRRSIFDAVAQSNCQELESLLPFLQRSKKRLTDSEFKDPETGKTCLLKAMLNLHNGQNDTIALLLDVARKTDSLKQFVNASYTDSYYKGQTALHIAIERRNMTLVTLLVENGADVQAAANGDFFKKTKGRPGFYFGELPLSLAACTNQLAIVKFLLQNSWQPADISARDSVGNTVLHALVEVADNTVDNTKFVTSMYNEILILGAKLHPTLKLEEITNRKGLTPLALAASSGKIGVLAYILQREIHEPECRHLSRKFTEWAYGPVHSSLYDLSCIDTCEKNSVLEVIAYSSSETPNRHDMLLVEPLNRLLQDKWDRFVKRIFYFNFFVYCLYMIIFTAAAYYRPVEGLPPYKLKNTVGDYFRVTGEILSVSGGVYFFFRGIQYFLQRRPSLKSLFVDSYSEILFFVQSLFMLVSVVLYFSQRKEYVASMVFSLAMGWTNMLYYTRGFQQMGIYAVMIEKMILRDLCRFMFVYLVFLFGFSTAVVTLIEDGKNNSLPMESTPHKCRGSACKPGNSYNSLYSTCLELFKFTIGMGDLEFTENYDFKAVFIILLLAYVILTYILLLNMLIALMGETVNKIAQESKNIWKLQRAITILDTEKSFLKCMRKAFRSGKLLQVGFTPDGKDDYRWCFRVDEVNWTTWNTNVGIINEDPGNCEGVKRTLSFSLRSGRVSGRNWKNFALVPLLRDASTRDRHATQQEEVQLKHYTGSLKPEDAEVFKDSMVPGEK

Ki [1]: 85 nM | inhibition at 2.5 µM (hVR1): 12%
SMILES: O=C(Cc1cccc(F)c1)NCc1cc(C(F)(F)F)nn1-c1cccc(Cl)c1 [Example 74, N-((1-(3-chlorophenyl)-3-(trifluoromethyl)-1H-pyrazol-5-yl)methyl)-2-(3-fluorophenyl)acetamide]
